Data set [1] can be described thus: Half life in human liver microsomes. It is filed as ADME, Microsome.
Data set [2] is described as follows: Half life in human hepatic S9 fraction. It is filed as ADME, subcellular, Liver.
A short description of data set [3]: Solubility of the compound. It is filed as physicochemical.

In brackets after ≈: the same amount, converted by molar mass.

From ChEMBL document CHEMBL1949669, “Imidazopyridines as selective CYP3A4 inhibitors” (Bioorg Med Chem Lett, 2012) come the findings set out here.

The half-life is the time needed for the level to fall by half in the phase considered. A low value points to fast loss. As usually defined, the solubility is the concentration that dissolves in the medium under given conditions.

Regarding `CCOC(=O)c1cccc(NC(=O)Nc2ccc(-c3ccnc4[nH]cnc34)cc2)c1`, the half-life in data set [1] and in data set [2] was 8 min each time. In turn, `O=C(Nc1ccc(-c2ccccc2)cc1)Nc1ccc(-c2ccnc3[nH]cnc23)cc1` had a solubility in data set [3] of 2 µM (≈ 0.811 µg/mL).
